Test results taken from ChEMBL document CHEMBL5380816, “Inclusion of Nitrofurantoin into the Realm of Cancer Chemotherapy via Biology-Oriented Synthesis and Drug Repurposing” (J Med Chem, 2023).
Activity calls are given as the source filed them. No cut-off for these calls is given here.

Key:
[1] = tested on: MCF7; experiment: cells; conditions: Homo sapiens, MCF7, 72 h, read-out: Activity
Description: Induction of apoptosis in human MCF7 cells assessed as viable cells incubated at 0.027 uM for 72 hrs by annexin V-FITC based propidium iodide dual staining assay (Rvb = 99.9%)

[2] = tested on: MCF7; experiment: Induction of apoptosis in human MCF7 cells assessed as ratio of gene expression activity in pro apoptotic Bax to anti apoptotic Bcl-2; format: functional
[3] = tested on: Caco-2; experiment: Induction of apoptosis in human Caco-2 cells assessed as ratio of gene expression activity in pro apoptotic Bax to anti apoptotic Bcl-2; format: functional
[4] = Selectivity index, ratio of IC50 for human WI-38 cells to IC50 for human HeLa cells; format: toxicity; conditions: WI-38 cells versus HeLa cells, read-out: Ratio IC50
[5] = tested on: Caco-2; experiment: Anticancer activity against human Caco-2 cells incubated for 72 hrs by MTT assay; format: functional, cell-based; conditions: Caco-2, 72 h
[6] = tested on: HepG2; experiment: Induction of apoptosis in human HepG2 cells assessed as ratio of gene expression activity in pro apoptotic Bax to anti apoptotic Bcl-2; format: functional
[7] = tested on: HeLa; experiment: Anticancer activity against human HeLa cells incubated for 72 hrs by MTT assay; format: functional, cell-based
[8] = Selectivity index, ratio of IC50 for human WI-38 cells to IC50 for human Caco-2 cells
[9] = tested on: Caco-2; experiment: cells; conditions: Homo sapiens, Caco-2, 72 h, read-out: Activity
[10] = tested on: HeLa; experiment: cells; conditions: Homo sapiens, 72 h, read-out: Activity
Description: Induction of apoptosis in human HeLa cells assessed as viable cells incubated at 0.027 uM for 72 hrs by annexin V-FITC based propidium iodide dual staining assay (Rvb = 97.23%)

[11] = tested on: HepG2; experiment: cells; conditions: Homo sapiens, HepG2, 72 h, read-out: Activity
Description: Induction of apoptosis in human HepG2 cells assessed as viable cells incubated at 0.027 uM for 72 hrs by annexin V-FITC based propidium iodide dual staining assay (Rvb = 97.27%)

[12] = tested on: HeLa; experiment: Induction of apoptosis in human HeLa cells assessed as ratio of gene expression activity in pro apoptotic Bax to anti apoptotic Bcl-2; format: functional
[13] = Cytotoxicity in human WI-38 cells assessed as safe dose incubated for 72 hrs by MTT assay; format: toxicity, cell-based; conditions: read-out: EC100
[14] = Cytotoxicity in human WI-38 cells assessed as reduction in cell viability incubated for 72 hrs by MTT assay; format: toxicity, cell-based
[15] = biological target: Tumour suppressor p53/oncoprotein Mdm2 (Homo sapiens, UniProt P04637+Q00987); experiment: Inhibition of human recombinant MDM2/p53 interaction measured after 10 mins by ELISA method; format: protein assay
[16] = Selectivity index, ratio of IC50 for human WI-38 cells to IC50 for human HepG2 cells; format: toxicity; conditions: WI-38 cells versus HepG2 cells, read-out: Ratio IC50
[17] = Selectivity index, ratio of IC50 for human WI-38 cells to IC50 for human MCF7 cells; format: toxicity; conditions: WI-38 cells versus MCF7 cells, read-out: Ratio IC50
[18] = tested on: HepG2; experiment: Potency index, ratio of 5-fluorouracil IC50 to test compound IC50 for antiproliferative activity against human HepG2 cells; format: functional
[19] = tested on: MCF7; experiment: Potency index, ratio of 5-fluorouracil IC50 to test compound IC50 for antiproliferative activity against human MCF7 cells; format: functional
[20] = tested on: HepG2; experiment: Anticancer activity against human HepG2 cells incubated for 72 hrs by MTT assay; format: functional, cell-based; conditions: HepG2, 72 h
[21] = tested on: MCF7; experiment: Anticancer activity against human MCF7 cells incubated for 72 hrs by MTT assay; format: functional, cell-based; conditions: MCF7, 72 h
[22] = tested on: dsDNA; experiment: Induction of damage in dsDNA (unknown origin) assessed as DNA disruption by measuring damage constant at 100 uM incubated for 2.5 hrs by EvaGreen based fluorescence plate reader analysis; format: nucleic-acid assay
[23] = tested on: dsDNA; experiment: Induction of damage in dsDNA (unknown origin) assessed as DNA disruption by measuring fluorescence intensity at 100 uM incubated for 2.5 hrs by EvaGreen based fluorescence plate reader analysis; format: nucleic-acid assay
[24] = tested on: dsDNA; experiment: Induction of damage in dsDNA (unknown origin) assessed as DNA disruption by measuring amplitude at 100 uM incubated for 2.5 hrs by EvaGreen based fluorescence plate reader analysis; format: nucleic-acid assay
[25] = tested on: MCF7; experiment: Induction of apoptosis in human MCF7 cells assessed as pro-oxidant effect by measuring free radical generation measured at 0.097 uM after 72 hrs; format: functional, cell-based
[26] = tested on: Caco-2; experiment: Induction of apoptosis in human Caco-2 cells assessed as pro-oxidant effect by measuring free radical generation measured at 0.097 uM after 72 hrs; format: functional, cell-based

Sequence of Tumour suppressor p53/oncoprotein Mdm2 (P04637 whole entry): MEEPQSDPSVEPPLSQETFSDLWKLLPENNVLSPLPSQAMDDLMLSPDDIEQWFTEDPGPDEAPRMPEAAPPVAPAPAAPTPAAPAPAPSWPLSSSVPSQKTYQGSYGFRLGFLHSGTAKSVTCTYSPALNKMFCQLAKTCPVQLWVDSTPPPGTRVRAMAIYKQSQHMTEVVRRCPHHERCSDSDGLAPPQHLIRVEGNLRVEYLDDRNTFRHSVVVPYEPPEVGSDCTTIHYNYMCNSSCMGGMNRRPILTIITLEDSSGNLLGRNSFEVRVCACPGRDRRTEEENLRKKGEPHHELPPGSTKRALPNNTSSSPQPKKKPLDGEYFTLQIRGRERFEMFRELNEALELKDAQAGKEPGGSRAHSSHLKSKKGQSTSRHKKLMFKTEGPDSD
Sequence of Tumour suppressor p53/oncoprotein Mdm2 (Q00987 whole entry): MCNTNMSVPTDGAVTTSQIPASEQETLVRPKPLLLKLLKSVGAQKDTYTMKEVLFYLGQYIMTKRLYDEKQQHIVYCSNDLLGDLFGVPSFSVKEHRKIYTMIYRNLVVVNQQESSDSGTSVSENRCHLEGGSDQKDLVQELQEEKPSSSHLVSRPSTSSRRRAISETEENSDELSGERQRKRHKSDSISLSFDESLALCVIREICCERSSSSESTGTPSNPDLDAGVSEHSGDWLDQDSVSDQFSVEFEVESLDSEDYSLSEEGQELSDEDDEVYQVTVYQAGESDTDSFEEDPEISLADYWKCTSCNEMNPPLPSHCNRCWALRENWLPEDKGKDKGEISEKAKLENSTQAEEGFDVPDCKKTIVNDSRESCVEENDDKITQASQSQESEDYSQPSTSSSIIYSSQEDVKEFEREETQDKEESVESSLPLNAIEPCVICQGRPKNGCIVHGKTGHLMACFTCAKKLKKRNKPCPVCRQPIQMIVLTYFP

## O=C1CN(/N=C/c2ccc([N+](=O)[O-])o2)C(=O)N1 [NITROFURANTOIN]
[1]
  viability at 0.027 µM: 98.8%
[2]
  Ratio: 0.958
[3]
  Ratio: 1.385
[4]
  selectivity ratio: 0.98
[5]
  IC50: 115 nM
[6]
  Ratio: 1.002
[7]
  IC50: 166 nM
[8]
  Ratio IC50: 1.41
[9]
  viability at 0.027 µM: 85%
[10]
  viability at 0.027 µM: 84.8%
[11]
  viability at 0.027 µM: 98.7%
[12]
  Ratio: 1.42
[13]
  MNTC at 72 h: 27 nM
[14]
  IC50 at 72 h: 162 nM
[15]
  IC50: 1580 nM

## O=C1CN(/N=C/c2ccc([N+](=O)[O-])o2)C(=O)N1Cc1cn(-c2ccc(S(=O)(=O)Nc3nccs3)cc2)nn1
[16]
  selectivity ratio: 1.23
[17]
  selectivity ratio: 0.727
[4]
  selectivity ratio: 0.813
[18]
  Ratio IC50: 1.2
[5]
  IC50: 87 nM
[19]
  Ratio IC50: 1.2
[7]
  IC50: 108 nM
[8]
  Ratio IC50: 1.01
[20]
  IC50: 71 nM
[13]
  MNTC at 72 h: 32 nM
[21]
  IC50: 120 nM
[14]
  IC50 at 72 h: 87.9 nM

## O=C1CN(/N=C/c2ccc([N+](=O)[O-])o2)C(=O)N1Cc1cn(-c2ccccc2)nn1
[16]
  selectivity ratio: 2.11
[17]
  selectivity ratio: 1.74
[4]
  selectivity ratio: 2.61
[18]
  Ratio IC50: 1.2
[5]
  IC50: 144 nM
[19]
  Ratio IC50: 1.2
[7]
  IC50: 84 nM
[8]
  Ratio IC50: 1.53
[20]
  IC50: 104 nM
[13]
  MNTC at 72 h: 36 nM
[21]
  IC50: 128 nM
[14]
  IC50 at 72 h: 220 nM

## Cc1ccc(-n2cc(CN3C(=O)CN(/N=C/c4ccc([N+](=O)[O-])o4)C3=O)nn2)cc1
[16]
  selectivity ratio: 0.824
[17]
  selectivity ratio: 1.6
[4]
  selectivity ratio: 3.92
[5]
  IC50: 113 nM
[19]
  Ratio IC50: 1.2
[7]
  IC50: 59 nM
[8]
  Ratio IC50: 2.05
[20]
  IC50: 283 nM
[13]
  MNTC at 72 h: 27 nM
[21]
  IC50: 145 nM
[14]
  IC50 at 72 h: 232 nM

## COc1ccc(C(=O)CN2C(=O)CN(/N=C/c3ccc([N+](=O)[O-])o3)C2=O)cc1
[16]
  selectivity ratio: 0.948
[17]
  selectivity ratio: 0.706
[4]
  selectivity ratio: 1.61
[18]
  Ratio IC50: 1.2
[5]
  IC50: 105 nM
[19]
  Ratio IC50: 1.2
[7]
  IC50: 87 nM
[8]
  Ratio IC50: 1.37
[20]
  IC50: 149 nM
[13]
  MNTC at 72 h: 26 nM
[21]
  IC50: 198 nM
[14]
  IC50 at 72 h: 140 nM

## O=C1CN(/N=C/c2ccc([N+](=O)[O-])o2)C(=O)N1Cc1ccc([N+](=O)[O-])cc1
[16]
  selectivity ratio: 1.42
[17]
  selectivity ratio: 1.77
[4]
  selectivity ratio: 1.51
[18]
  Ratio IC50: 1.2
[5]
  IC50: 103 nM
[19]
  Ratio IC50: 1.2
[7]
  IC50: 121 nM
[8]
  Ratio IC50: 1.75
[20]
  IC50: 127 nM
[13]
  MNTC at 72 h: 9 nM
[21]
  IC50: 103 nM
[14]
  IC50 at 72 h: 181 nM

## COc1cccc2c1C(=O)c1c(O)c3c(c(O)c1C2=O)C[C@@](O)(C(=O)CO)C[C@@H]3O[C@H]1C[C@H](N)[C@H](O)[C@H](C)O1
[22]
  Activity: 15.2
[23]
  Activity: 65.4
[24]
  Activity: 218

## Cc1ccc(C(=O)CN2C(=O)CN(/N=C/c3ccc([N+](=O)[O-])o3)C2=O)cc1
[16]
  selectivity ratio: 0.628
[17]
  selectivity ratio: 0.706
[4]
  selectivity ratio: 1.58
[5]
  IC50: 140 nM
[7]
  IC50: 115 nM
[8]
  Ratio IC50: 1.28
[20]
  IC50: 287 nM
[13]
  MNTC at 72 h: 33 nM
[21]
  IC50: 255 nM
[14]
  IC50 at 72 h: 180 nM

## O=C1CN(/N=C/c2ccc([N+](=O)[O-])o2)C(=O)N1Cc1cn(-c2ccc(Cl)cc2)nn1
[16]
  selectivity ratio: 0.376
[25]
  Activity: Active
[17]
  selectivity ratio: 1.77
[26]
  Activity: Active
[4]
  selectivity ratio: 1.92
[5]
  IC50: 77 nM
[19]
  Ratio IC50: 1.2
[7]
  IC50: 78 nM
[8]
  Ratio IC50: 1.95
[20]
  IC50: 400 nM
[13]
  MNTC at 72 h: 29 nM
[21]
  IC50: 85 nM
[14]
  IC50 at 72 h: 150 nM

## O=C(CN1C(=O)CN(/N=C/c2ccc([N+](=O)[O-])o2)C1=O)c1ccccc1
[16]
  selectivity ratio: 0.824
[17]
  selectivity ratio: 2.98
[5]
  IC50: 73 nM
[19]
  Ratio IC50: 1.2
[8]
  Ratio IC50: 3.08
[20]
  IC50: 277 nM
[13]
  MNTC at 72 h: 19 nM
[21]
  IC50: 76 nM
[14]
  IC50 at 72 h: 226 nM

## O=C1CN(/N=C/c2ccc([N+](=O)[O-])o2)C(=O)N1Cc1cn(-c2ccc([N+](=O)[O-])cc2)nn1
[16]
  selectivity ratio: 2.92
[17]
  selectivity ratio: 1.56
[4]
  selectivity ratio: 1.62
[18]
  Ratio IC50: 1.2
[5]
  IC50: 140 nM
[19]
  Ratio IC50: 1.2
[7]
  IC50: 113 nM
[8]
  Ratio IC50: 1.32
[20]
  IC50: 63 nM
[13]
  MNTC at 72 h: 26 nM
[21]
  IC50: 117 nM
[14]
  IC50 at 72 h: 183 nM

## O=C1CN(/N=C/c2ccc([N+](=O)[O-])o2)C(=O)N1Cc1ccc(Br)cc1
[16]
  selectivity ratio: 1.78
[17]
  selectivity ratio: 1.5
[4]
  selectivity ratio: 0.65
[18]
  Ratio IC50: 1.2
[19]
  Ratio IC50: 1.2
[7]
  IC50: 183 nM
[20]
  IC50: 67 nM
[13]
  MNTC at 72 h: 32 nM
[21]
  IC50: 80 nM
[14]
  IC50 at 72 h: 119 nM

## O=C1CN(/N=C/c2ccc([N+](=O)[O-])o2)C(=O)N1Cc1ccccc1
[16]
  selectivity ratio: 1.82
[17]
  selectivity ratio: 1.92
[4]
  selectivity ratio: 1.68
[18]
  Ratio IC50: 1.2
[5]
  IC50: 182 nM
[19]
  Ratio IC50: 1.2
[7]
  IC50: 129 nM
[8]
  Ratio IC50: 1.19
[20]
  IC50: 120 nM
[13]
  MNTC at 72 h: 33 nM
[21]
  IC50: 113 nM
[14]
  IC50 at 72 h: 216 nM

## O=C(CN1C(=O)CN(/N=C/c2ccc([N+](=O)[O-])o2)C1=O)c1ccc(Br)cc1
[16]
  selectivity ratio: 0.83
[17]
  selectivity ratio: 2.31
[4]
  selectivity ratio: 2.47
[5]
  IC50: 78 nM
[19]
  Ratio IC50: 1.2
[7]
  IC50: 97 nM
[8]
  Ratio IC50: 3.05
[20]
  IC50: 289 nM
[13]
  MNTC at 72 h: 66 nM
[21]
  IC50: 105 nM
[14]
  IC50 at 72 h: 240 nM
